Assay results published in PMC9845116 (Saudi Pharmaceutical Journal : SPJ, 2022).
Where two headings read alike, the source gives them in different places.

How the values were obtained:
Assay type in all cases: cell-based
Hela = assay: MTT cell viability assay, Hela; settings: 48 h
MCF-7 = assay: MTT cell viability assay, MCF-7
HepG2 = assay: MTT cell viability assay, HepG2; settings: read-out: IC50(μM) HepG2
A549 = assay: MTT cell viability assay, A549; settings: read-out: IC50(μM) A549
[1] = Homo sapiens, HeLa, read-out: IC50(μM) Hela, MTT, 48 h, Hela
[2] = Homo sapiens, MCF7, 48 h, read-out: IC50(μM) MCF-7, MTT, 48 h, MCF-7
[3] = read-out: IC50(μM) Hela, MTT, Hela
[4] = read-out: IC50(μM) MCF-7, MTT, 48 h, MCF-7

Row | Compound | IC50 (Hela; [1]) [µM] | IC50 (MCF-7; [2]) [µM] | IC50 (HepG2; Homo sapiens, HepG2, 48 h) [µM] | IC50 (A549; Homo sapiens, A549, 48 h) [µM] | IC50 (Hela; [3]) [µM] | IC50 (MCF-7; [4]) [µM] | IC50 (HepG2; MTT, 48 h, HepG2) [µM] | IC50 (A549; MTT, 48 h, A549) [µM]
1 | COc1cc(OC)c(C(=O)/C=C/c2ccc(OCc3cc4ccccc4[nH]c3=O)cc2)c(OC)c1 [C10, (E)-3-((4-(3-oxo-3-(2,4,6-trimethoxyphenyl)prop-1-en-1-yl)phenoxy)methyl)quinolin-2(1H)-one] | > 100 | > 100 | > 100 | > 100 | – | – | – | –
2 | COc1cc(OC)c(C(=O)/C=C/c2ccc(OCc3ccccc3)cc2)c(OC)c1 [C4, (E)-3-(4-(benzyloxy)phenyl)-1-(2,4,6-trimethoxyphenyl)prop-2-en-1-one] | > 100 | > 100 | > 100 | > 100 | – | – | – | –
3 | COc1cc(OC)c(C(=O)/C=C/c2ccc(OCc3cnc4ccccc4c3)cc2)c(OC)c1 [C9, (E)-3-(4-(quinolin-3-ylmethoxy)phenyl)-1-(2,4,6-trimethoxyphenyl)prop-2-en-1-one] | > 100 | > 100 | > 100 | > 100 | – | – | – | –
4 | COc1cc(OC)c(C(=O)/C=C/c2ccc(OCC3CCCCC3)cc2)c(OC)c1 [C3, (E)-3-(4-(cyclohexylmethoxy)phenyl)-1-(2,4,6-trimethoxyphenyl)prop-2-en-1-one] | > 100 | > 100 | > 100 | > 100 | – | – | – | –
5 | COc1cc(OC)c(C(=O)/C=C/c2ccccc2)c(OC)c1 [A7, (E)-3-phenyl-1-(2,4,6-trimethoxyphenyl)prop-2-en-1-one] | 46.5 ± 1.33 | 57.8 ± 1.45 | 47.1 ± 1.42 | 59.4 ± 1.72 | – | – | – | –
6 | COc1cc(OC)c(C(=O)/C=C/c2ccccn2)c(OC)c1 [B1, (E)-3-(pyridin-2-yl)-1-(2,4,6-trimethoxyphenyl)prop-2-en-1-one] | 11.9 ± 0.44 | 8.74 ± 0.63 | 10.8 ± 0.39 | 10.6 ± 0.38 | – | – | – | –
7 | COc1cc(OC)c(C(=O)/C=C/c2ccc(OCC3CCCC3)cc2)c(OC)c1 [C2, (E)-3-(4-(cyclopentylmethoxy)phenyl)-1-(2,4,6-trimethoxyphenyl)prop-2-en-1-one] | 22.6 ± 1.11 | > 100 | > 100 | 73.6 ± 1.17 | – | – | – | –
8 | COc1cc(OC)c(C(=O)/C=C/c2ccoc2)c(OC)c1 [B7, (E)-3-(furan-3-yl)-1-(2,4,6-trimethoxyphenyl)prop-2-en-1-one] | 81.3 ± 2.44 | 82.9 ± 2.65 | 61.4 ± 1.34 | 47.4 ± 2.12 | – | – | – | –
9 | COc1cc(OC)c(C(=O)/C=C/c2cnc3ccccc3c2)c(OC)c1 [B10, (E)-3-(quinolin-3-yl)-1-(2,4,6-trimethoxyphenyl)prop-2-en-1-one] | 13.6 ± 0.83 | 10.7 ± 0.62 | 8.92 ± 0.68 | 15.5 ± 0.74 | – | – | – | –
10 | COc1cc(OC)c(C(=O)/C=C/c2ccc(OCc3ccc4ccccc4c3)cc2)c(OC)c1 [C8, (E)-3-(4-(naphthalen-2-ylmethoxy)phenyl)-1-(2,4,6-trimethoxyphenyl)prop-2-en-1-one] | > 100 | > 100 | > 100 | > 100 | – | – | – | –
11 | (E)-3-(3,4-dimethoxyphenyl)-1-(2,4,6-trimethoxyphenyl)prop-2-en-1-one [A3] | – | – | – | – | 71.5 ± 1.54 | > 100 | 35.4 ± 1.37 | > 100
12 | COc1cc(OC)c(C(=O)/C=C/C2=CSC(Br)=CC2)c(OC)c1 [B6, (E)-3-(6-bromo-4H-thiopyran-3-yl)-1-(2,4,6-trimethoxyphenyl)prop-2-en-1-one] | 18.9 ± 0.73 | 26.3 ± 0.94 | 19.5 ± 0.59 | 31.3 ± 0.63 | – | – | – | –
13 | COc1cc(OC)c(C(=O)/C=C/c2ccc(Br)cc2)c(OC)c1 [B4, (E)-3-(4-bromophenyl)-1-(2,4,6-trimethoxyphenyl)prop-2-en-1-one] | 11.8 ± 0.86 | 12.8 ± 0.64 | 13 ± 0.74 | 19.8 ± 0.98 | – | – | – | –
14 | O=c1[nH]cc(F)c(=O)[nH]1 [5-Fu, 5-fluorouracil, reference compound] | 43.8 ± 1.53 | 55.2 ± 1.92 | 45.4 ± 1.35 | 43.5 ± 1.22 | – | – | – | –
15 | COc1cc(OC)c(C(=O)/C=C/c2ccc(OCC3CC3)cc2)c(OC)c1 [C1, (E)-3-(4-(cyclopropylmethoxy)phenyl)-1-(2,4,6-trimethoxyphenyl)prop-2-en-1-one] | 45.5 ± 1.59 | > 100 | 39.3 ± 1.55 | > 100 | – | – | – | –
16 | (E)-3-(3-hydroxy-4-methoxyphenyl)-1-(2,4,6-trimethoxyphenyl)prop-2-en-1-one [A5] | – | – | – | – | 38.8 ± 1.21 | 24.7 ± 0.94 | 40.7 ± 1.29 | 70.9 ± 1.82
17 | COc1cc(OC)c(C(=O)/C=C/c2cc3cc(F)ccc3[nH]c2=O)c(OC)c1 [B16, (E)-6-fluoro-3-(3-oxo-3-(2,4,6-trimethoxyphenyl)prop-1-en-1-yl)quinolin-2(1H)-one] | 18.1 ± 1.04 | 12.6 ± 0.73 | 15.1 ± 0.62 | 18.4 ± 0.65 | – | – | – | –
18 | COc1cc(OC)c(C(=O)/C=C/c2ccc(OCc3ccccn3)cc2)c(OC)c1 [C6, (E)-3-(4-(pyridin-2-ylmethoxy)phenyl)-1-(2,4,6-trimethoxyphenyl)prop-2-en-1-one] | > 100 | > 100 | > 100 | 74.2 ± 1.84 | – | – | – | –
19 | (E)-3-(3,5-dimethoxyphenyl)-1-(2,4,6-trimethoxyphenyl)prop-2-en-1-one [A4] | – | – | – | – | 32.3 ± 1.31 | 32.4 ± 1.29 | 33.4 ± 1.37 | 71.2 ± 1.56
20 | COc1cc(OC)c(C(=O)/C=C/c2cc3cc(C)ccc3[nH]c2=O)c(OC)c1 [B15, (E)-6-methyl-3-(3-oxo-3-(2,4,6-trimethoxyphenyl)prop-1-en-1-yl)quinolin-2(1H)-one] | 4.91 ± 0.3 | 16 ± 0.56 | 18 ± 0.62 | 20.4 ± 0.67 | – | – | – | –
21 | COc1cc(OC)c(C(=O)/C=C/c2c(OC)cc(OC)c(C)c2OC)c(OC)c1 [A6, (E)-3-(2,4,6-trimethoxy-3-methylphenyl)-1-(2,4,6-trimethoxyphenyl)prop-2-en-1-one] | > 100 | > 100 | > 100 | 63.3 ± 1.41 | – | – | – | –
22 | COc1cc(OC)c(C(=O)/C=C/c2coc(Br)c2)c(OC)c1 [B8, (E)-3-(5-bromofuran-3-yl)-1-(2,4,6-trimethoxyphenyl)prop-2-en-1-one] | 49.8 ± 1.43 | 48.8 ± 1.45 | 20.4 ± 1.52 | > 100 | – | – | – | –
23 | COc1cc(OC)c(C(=O)/C=C/c2cccc(Br)n2)c(OC)c1 [B2, (E)-3-(6-bromopyridin-2-yl)-1-(2,4,6-trimethoxyphenyl)prop-2-en-1-one] | 6.48 ± 0.33 | 7.83 ± 0.45 | 7.12 ± 0.42 | 9.36 ± 0.72 | – | – | – | –
24 | COc1cc(OC)c(C(=O)/C=C/c2cc3ccccc3[nH]c2=O)c(OC)c1 [B14, (E)-3-(3-oxo-3-(2,4,6-trimethoxyphenyl)prop-1-en-1-yl)quinolin-2(1H)-one] | 35 ± 0.83 | 7.92 ± 0.59 | 17.6 ± 0.74 | 10.7 ± 0.74 | – | – | – | –
25 | COc1cc(OC)c(C(=O)/C=C/c2ccc(OCc3ccsc3)cc2)c(OC)c1 [C7, (E)-3-(4-(thiophen-3-ylmethoxy)phenyl)-1-(2,4,6-trimethoxyphenyl)prop-2-en-1-one] | 35 ± 1.17 | 87.8 ± 2.7 | 51.1 ± 2.1 | > 100 | – | – | – | –
26 | COc1cc(OC)c(C(=O)/C=C/c2ccc(-c3ccccc3)cc2)c(OC)c1 [B12, (E)-3-([1,1′-biphenyl]-4-yl)-1-(2,4,6-trimethoxyphenyl)prop-2-en-1-one] | 46.3 ± 1.07 | 51.6 ± 1.23 | 38.1 ± 1.45 | 44.5 ± 1.05 | – | – | – | –
27 | COc1cc(OC)c(C(=O)/C=C/c2ccc(-c3ccc(F)cc3)cc2)c(OC)c1 [B13, (E)-3-(4′-fluoro-[1,1′-biphenyl]-4-yl)-1-(2,4,6-trimethoxyphenyl)prop-2-en-1-one] | 30.5 ± 0.89 | 35.3 ± 1.14 | 25.6 ± 0.77 | 40.6 ± 1.51 | – | – | – | –
28 | COc1cc(OC)c(C(=O)/C=C/c2ccsc2)c(OC)c1 [B5, (E)-3-(thiophen-3-yl)-1-(2,4,6-trimethoxyphenyl)prop-2-en-1-one] | 37.2 ± 1.22 | 35.8 ± 1.35 | 19.9 ± 1.31 | 46.9 ± 1.15 | – | – | – | –
29 | COc1cc(OC)c(C(=O)/C=C/c2cn(C)c3ccccc23)c(OC)c1 [B11, (E)-3-(1-methyl-1H-indol-3-yl)-1-(2,4,6-trimethoxyphenyl)prop-2-en-1-one] | > 100 | > 100 | > 100 | > 100 | – | – | – | –
30 | COc1cc(OC)c(C(=O)/C=C/c2ccc(OCc3ccc(Br)cc3)cc2)c(OC)c1 [C5, (E)-3-(4-((4-bromobenzyl)oxy)phenyl)-1-(2,4,6-trimethoxyphenyl)prop-2-en-1-one] | > 100 | > 100 | > 100 | > 100 | – | – | – | –
